Source: EP4653444A1, “FUSED TRICYCLIC COMPOUND AS KINASE INHIBITOR” (Hangzhou Innogate Pharma Co., Ltd., priority 2023, dated 2024)
Like-named read-outs stand apart in the source and are kept apart here.

What was measured:
[1] = target: ALK kinase (Homo sapiens, UniProt Q9UM73); assay: ALK kinase activity inhibition assay (HTRF); type: biochemical
Procedure: Measure compound inhibitory activity against ALK kinase using HTRF Assay.1× kinase reaction buffer was prepared. The kinase reaction conditions were as follows: kinase concentration at 0.04 ng/µL; ATP working concentration in substrate mixture solution at 2 µM; final substrate concentration at 1 µM. Compounds were serially diluted in DMSO and shaken on an orbital shaker for 20 minutes. 2× kinase solution was prepared using 1× kinase reaction buffer. 1 µL of compound solution was transferred to a 384-well plate. 2 µL of kinase solution was added to each well of the reaction plate. The plate was sealed with adhesive film, centrifuged at 1000 rpm for 60 seconds, and incubated at 25°C for 10 minutes. 2.5× ATP/substrate mixture was prepared using 1× kinase reaction buffer. 2 µL of 2.5× ATP/substrate mixture was added to the reaction plate. The plate was sealed with adhesive film, centrifuged at 1000 rpm for 60 seconds, and incubated at 25°C for 50 minutes. 4× Sa-XL 665 solution was prepared using HTRF detection buffer. 5 µL of Sa-XL 665 solution and 5 µL of TK-antibody-Cryptate solution were added to each well. The plate was centrifuged at 1000 rpm for 60 seconds and incubated at 25°C for 60 minutes. Fluorescence signals were measured at 615 nm (Cryptate) and 665 nm (XL665) using a BMG microplate reader. The ratio for each well was calculated as: Ratio_665/615nm. The inhibition percentage was calculated as follows: % inhibition = 100% - [(Compound Ratio - Positive Control Ratio)/(Negative Control Ratio - Positive Control Ratio)] × 100%. The IC50 values (half-maximal inhibitory concentration) of compounds were determined by fitting the data to the following nonlinear regression equation using GraphPad Prism 7.0 software: Y = Bottom + (Top - Bottom)/(1 + 10^(([…] - X) × Hill Slope)) where: X = log(compound concentration), Y = % inhibition.

[2] = target: HPK1 kinase (Homo sapiens, UniProt Q92918); assay: HPK1 kinase activity inhibition assay (Mobility shift assay); type: biochemical
Chain of HPK1 kinase (Q92918 whole entry): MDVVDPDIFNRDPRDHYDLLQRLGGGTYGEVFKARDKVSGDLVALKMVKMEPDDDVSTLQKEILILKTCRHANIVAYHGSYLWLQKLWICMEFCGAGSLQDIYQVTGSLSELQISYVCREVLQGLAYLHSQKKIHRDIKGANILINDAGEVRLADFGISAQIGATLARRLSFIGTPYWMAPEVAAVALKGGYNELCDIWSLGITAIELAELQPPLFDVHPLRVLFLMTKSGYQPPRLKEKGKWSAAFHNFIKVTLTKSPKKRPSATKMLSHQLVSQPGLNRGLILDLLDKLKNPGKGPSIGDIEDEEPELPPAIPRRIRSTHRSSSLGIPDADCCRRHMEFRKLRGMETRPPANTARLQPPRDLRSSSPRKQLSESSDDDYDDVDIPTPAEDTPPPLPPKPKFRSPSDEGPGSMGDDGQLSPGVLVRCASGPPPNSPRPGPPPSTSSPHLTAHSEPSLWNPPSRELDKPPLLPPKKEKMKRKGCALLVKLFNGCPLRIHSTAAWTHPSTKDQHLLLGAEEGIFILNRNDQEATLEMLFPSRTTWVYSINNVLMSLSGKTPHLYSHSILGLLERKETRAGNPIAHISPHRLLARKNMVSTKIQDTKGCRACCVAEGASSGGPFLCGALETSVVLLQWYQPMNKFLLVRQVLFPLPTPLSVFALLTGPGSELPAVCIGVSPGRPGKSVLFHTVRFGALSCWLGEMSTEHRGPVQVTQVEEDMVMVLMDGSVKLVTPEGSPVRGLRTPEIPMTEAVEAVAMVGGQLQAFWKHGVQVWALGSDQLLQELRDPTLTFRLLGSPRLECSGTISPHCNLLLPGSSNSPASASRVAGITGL
Procedure: Measure compound inhibitory activity against HPK1 kinase using Mobility shift assay. Compounds were dissolved in 100% DMSO to prepare 10 mM stock solutions. 1× Kinase buffer was prepared. Test compounds were serially diluted in 5-fold gradients, and 250 nL of 100× final concentration compounds were transferred to destination plate 3573 using an Echo 550 liquid handler. A 2.5× final concentration kinase solution was prepared in 1× Kinase Buffer. 10 µL of the 2.5× kinase solution was added to both compound wells and positive control wells, while 10 µL of 1× Kinase buffer was added to negative control wells. The plate was centrifuged at 1000 rpm for 30 seconds, mixed by orbital shaking, and incubated at room temperature for 10 minutes. A 5/3× final concentration mixture of ATP and Kinase substrate 25 was prepared in 1× Kinase buffer. 15 µL of the 5/3× ATP/substrate mixture was added to initiate the reaction. The 384-well plate was centrifuged at 1000 rpm for 30 seconds, mixed by shaking, and incubated at room temperature for 120 minutes. The kinase reaction was terminated by adding 30 µL stop solution, followed by centrifugation at 1000 rpm for 30 seconds and mixing. Conversion rates were measured using a Caliper EZ Reader. The inhibition percentage was calculated as: %Inhibition = (Conversion%_max - Conversion%_sample)/(Conversion%_max - Conversion%_min) × 100. Where Conversion%_sample: Conversion rate reading of test samples; Conversion%_min: Mean value of negative control wells (representing conversion rate without enzyme activity); Conversion%_max: Mean value of positive control wells (representing conversion rate without compound inhibition). Dose-response curves were plotted with log(concentration) as the X-axis and percentage inhibition as the Y-axis. Curve fitting was performed using GraphPad Prism 5 software with the "log(inhibitor) vs. response - Variable slope" model to derive IC50 values for each compound's enzyme inhibitory activity. The fitting formula was: Y = Bottom + (Top - Bottom)/(1 + 10^((LogIC50 - X) × HillSlope)).

[3] = Table 4, ATP 2 µM, read-out: ALK (IC50)

Chain of ALK kinase (Q9UM73 19-1620): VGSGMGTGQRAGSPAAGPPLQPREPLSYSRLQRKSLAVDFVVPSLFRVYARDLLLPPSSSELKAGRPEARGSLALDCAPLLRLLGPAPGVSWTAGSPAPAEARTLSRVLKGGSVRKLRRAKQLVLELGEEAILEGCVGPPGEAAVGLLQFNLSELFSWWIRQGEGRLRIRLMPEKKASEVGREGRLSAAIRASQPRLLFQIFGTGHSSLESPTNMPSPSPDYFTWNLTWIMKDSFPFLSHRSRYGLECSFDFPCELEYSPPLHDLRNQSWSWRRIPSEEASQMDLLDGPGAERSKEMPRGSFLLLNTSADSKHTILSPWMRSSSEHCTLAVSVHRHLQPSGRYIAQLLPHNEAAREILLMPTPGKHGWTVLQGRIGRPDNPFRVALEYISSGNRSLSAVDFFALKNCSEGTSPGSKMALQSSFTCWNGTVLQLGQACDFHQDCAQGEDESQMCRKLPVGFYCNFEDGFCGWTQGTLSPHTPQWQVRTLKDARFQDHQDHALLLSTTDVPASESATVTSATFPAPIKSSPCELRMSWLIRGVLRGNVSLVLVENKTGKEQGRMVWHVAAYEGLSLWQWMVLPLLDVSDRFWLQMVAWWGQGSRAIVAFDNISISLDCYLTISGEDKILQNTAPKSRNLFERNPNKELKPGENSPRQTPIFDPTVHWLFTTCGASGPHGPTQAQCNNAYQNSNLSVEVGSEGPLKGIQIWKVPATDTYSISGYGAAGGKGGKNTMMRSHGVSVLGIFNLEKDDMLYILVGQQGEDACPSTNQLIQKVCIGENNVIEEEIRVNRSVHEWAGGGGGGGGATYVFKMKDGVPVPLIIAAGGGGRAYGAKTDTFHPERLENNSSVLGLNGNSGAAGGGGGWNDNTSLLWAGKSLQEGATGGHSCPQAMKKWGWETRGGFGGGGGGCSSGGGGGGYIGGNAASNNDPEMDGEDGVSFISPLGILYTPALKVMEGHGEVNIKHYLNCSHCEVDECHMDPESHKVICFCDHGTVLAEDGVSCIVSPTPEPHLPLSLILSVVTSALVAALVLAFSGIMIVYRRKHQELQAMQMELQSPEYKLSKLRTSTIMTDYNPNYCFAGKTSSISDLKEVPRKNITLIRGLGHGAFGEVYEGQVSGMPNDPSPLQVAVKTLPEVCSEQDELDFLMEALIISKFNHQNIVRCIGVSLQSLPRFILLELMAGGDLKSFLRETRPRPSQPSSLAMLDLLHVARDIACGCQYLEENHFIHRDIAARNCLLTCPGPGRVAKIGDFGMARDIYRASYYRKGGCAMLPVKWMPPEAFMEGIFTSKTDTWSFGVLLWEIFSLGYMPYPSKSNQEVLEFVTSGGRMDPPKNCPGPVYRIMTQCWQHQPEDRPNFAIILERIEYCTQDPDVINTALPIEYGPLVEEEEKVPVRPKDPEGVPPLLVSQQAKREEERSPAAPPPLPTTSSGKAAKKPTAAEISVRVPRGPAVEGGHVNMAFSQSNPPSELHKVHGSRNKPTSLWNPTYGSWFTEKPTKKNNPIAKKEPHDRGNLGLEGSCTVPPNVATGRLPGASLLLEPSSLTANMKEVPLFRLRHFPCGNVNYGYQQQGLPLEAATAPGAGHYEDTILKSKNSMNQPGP

Row | SMILES | IC50 [1] [nM] | IC50 [2] [nM] | IC50 ([2]; Table 4, read-out: HPK1 (IC50)) [nM] | IC50 [1, 3] [nM]
1 | COc1cc2c(cc1Nc1ncc(Cl)c(Nc3ccccc3S(=O)(=O)C(C)C)n1)OC[C@@H]1CN(C3CCN(C)CC3)CCN21 [Compound C2S] | < 0.05 |  |  | 
2 | CNC(=O)c1ccccc1Nc1cc(Nc2cc3c(cc2OC)N2CCN(C4CCN(C)CC4)C[C@@H]2CO3)ncc1C(F)(F)F [Compound D2R] | < 10 | < 30 |  | 
3 | CNC(=O)c1ccccc1Nc1cc(Nc2cc3c(cc2OC)N2CCN(C4CCN(C)CC4)C[C@H]2CO3)ncc1C(F)(F)F [Compound D2S] |  |  | < 30 | < 15
4 | CNC(=O)c1ccccc1Nc1cc(Nc2cc3c(cc2OC)N2CCN(C4CN(C)C4)C[C@H]2CO3)ncc1C(F)(F)F [Compound D4S] |  |  | < 20 | < 15
